Results: patent publication US8101605B2, “SHIP1 modulators and methods related thereto” (Aquinox Pharmaceuticals Inc., priority 2009, dated 2012)

How the values were obtained:
[1] = biological target: T1, His-hSHIP1 enzyme (Homo sapiens, UniProt Q92835); experiment: His-hSHIP1 phosphatase activity assay (IP4 substrate, Biomol Green); type: biochemical; settings: percentage increase relative to background; concentrations ≦300 μM
T1 sequence (Q92835 1-1189): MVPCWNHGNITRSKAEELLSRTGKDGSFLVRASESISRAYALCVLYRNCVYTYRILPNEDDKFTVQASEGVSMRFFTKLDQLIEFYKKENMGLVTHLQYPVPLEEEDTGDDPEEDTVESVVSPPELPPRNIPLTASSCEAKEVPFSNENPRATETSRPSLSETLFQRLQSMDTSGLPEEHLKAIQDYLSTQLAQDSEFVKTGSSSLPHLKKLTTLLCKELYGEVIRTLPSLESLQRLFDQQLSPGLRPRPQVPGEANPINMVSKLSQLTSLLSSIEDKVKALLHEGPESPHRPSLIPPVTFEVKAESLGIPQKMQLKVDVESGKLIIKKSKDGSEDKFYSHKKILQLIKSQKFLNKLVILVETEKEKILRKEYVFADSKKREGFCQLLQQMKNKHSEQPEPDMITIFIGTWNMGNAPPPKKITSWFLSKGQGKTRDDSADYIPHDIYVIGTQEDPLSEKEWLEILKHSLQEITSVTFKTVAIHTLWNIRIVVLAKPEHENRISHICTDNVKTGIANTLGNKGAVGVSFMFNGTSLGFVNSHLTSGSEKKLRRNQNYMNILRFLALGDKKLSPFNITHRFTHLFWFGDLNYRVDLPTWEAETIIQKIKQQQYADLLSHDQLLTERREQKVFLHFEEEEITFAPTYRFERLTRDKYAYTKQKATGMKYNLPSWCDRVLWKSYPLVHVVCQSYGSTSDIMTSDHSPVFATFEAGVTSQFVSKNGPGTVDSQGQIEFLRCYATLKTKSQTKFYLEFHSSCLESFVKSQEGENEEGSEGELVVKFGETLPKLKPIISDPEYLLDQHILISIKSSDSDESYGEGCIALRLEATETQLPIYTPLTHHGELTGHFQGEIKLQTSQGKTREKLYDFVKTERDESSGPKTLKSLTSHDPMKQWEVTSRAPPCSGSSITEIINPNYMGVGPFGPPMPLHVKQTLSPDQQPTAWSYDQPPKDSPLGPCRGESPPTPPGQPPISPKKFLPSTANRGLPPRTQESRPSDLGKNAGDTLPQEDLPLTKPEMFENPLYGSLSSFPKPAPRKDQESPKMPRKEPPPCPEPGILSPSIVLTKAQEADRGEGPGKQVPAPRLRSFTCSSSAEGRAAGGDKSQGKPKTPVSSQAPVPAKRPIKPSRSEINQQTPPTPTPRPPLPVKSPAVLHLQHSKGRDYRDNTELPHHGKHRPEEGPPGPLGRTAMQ
Summary of the method: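 His-hSHIP1 (15–20 ng) was incubated with IP4 (50 μM final) and compound (0–300 μM final, from 10% ethanol solutions) in 20 mM Tris-HCl, 10 mM MgCl2 pH 7.5, 0.02% Tween 20 for 15 min at 37 °C. Released phosphate was read with Biomol Green at 650 nm. Activation is % increase over background, scored + (<50%), ++ (≥50% but <65%), +++ (≥65%).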

[2] = test system: Akt phosphorylation in Molt-4 (PTEN−/SHIP1+) cells; experiment: Akt phosphorylation in IGF-1 stimulated Molt-4 lymphocytes (western blot); type: cell-based; parameters: key: +: inhibits Akt phosphorylation at 10 μM; −: no effect on Akt phosphorylation at 10 μM; settings: 10 μM; IGF-1 stimulation
Procedure: Jurkat (PTEN−/SHIP1−) or Molt-4 (PTEN−/SHIP1+) cells were starved in serum free RPMI for overnight. In a 15 mL conical tube, 2-3 million serum starved cells (1 million cells per mL) were treated with various concentrations of test compound (0.1, 1, or 10 μM final in 0.1% DMSO) for 30 min at 37° C. followed by stimulation with 100 ng/mL of IGF-1 for 1 hour at 37° C. After stimulation, cells were washed once with ice-cold DPBS and lysed with Lysis Buffer (20 mM Tris-HCl, pH 7.5, 140 mM NaCl, 1% NP-40, Complete Mini Protease Inhibitor Cocktail, 10 mM NaF, 1 mM Na3VO4, 1 mM β-glycerolphosphate) on ice for 30 min with vortexing every 10 min. Samples were then centrifuged at 13,000 rpm for 20 min, and supernatants were collected as total cell lysate samples. Protein concentration was determined using bicinchonic acid assay, and about 15 μg of total protein from each sample was loaded and separated on a 4-12% Tris-Glycine gel. After SDS-PAGE, proteins were transferred from the gel to a nitrocellulose membrane. The membrane was blocked in 5% BSA in PBS containing 0.1% Tween-20 (PBS-T) for 1 hour at room temperature before probing with primary antibodies for overnight at 4° C. The following antibodies were used: mouse anti-SHIP1 (1:500 dilution; Santa Cruz, Calif., USA), rabbit anti-phospho-Akt(Ser473) (1:1000 dilution; Cell Signaling Technologies, MA, USA), rabbit anti-Akt (1:1000; Cell Signaling Technologies, MA, USA), and rabbit anti-actin (1:2000; Cell Signaling Technologies, MA, USA). The membrane was then incubated with goat anti-rabbit or anti-mouse secondary antibodies (1:3000) for 1 hour at room temperature. Target proteins on the membrane were detected with ECL solution and exposed on a film.
Scoring in Table 3 is expressed as follows: + (inhibits Akt phosphorylation at 10 μM); − (no effect on Akt phosphorylation at 10 μM).

Row | Compound | Scoring: percent (%) activation of His-hSHIP1 enzyme [1] | Akt phosphorylation, Molt-4 (SHIP1+) [2]
1 | CC1(C)CCC[C@]2(C)[C@H]3CS(=O)(=O)c4cc(O)cc(O)c4[C@]3(C)CC[C@@H]12 [Compound No. 28, (1R,10R,11S,16S)-3,5-dihydroxy-1,11,15,15-tetramethyl-8-thiatetracyclo[8.8.0.0^2,7.0^11,16]octadeca-2,4,6-triene-8,8-dione] | +++ (≧65%) | +
2 | Cc1cc(O)cc2c1[C@]1(C)CC[C@H]3C(C)(C)CCC[C@]3(C)[C@H]1CO2 [Compound No. 6, (1R,10R,11S,16S)-1,3,11,15,15-pentamethyl-8-oxatetracyclo[8.8.0.0^2,7.0^11,16]octadeca-2,4,6-trien-5-ol] | + (<50%) | +
